Earlier results as cited in US5856175A, “Device for detecting microorganisms” (priority 1996, dated 1999).

settings: acid range, Table 2; cited from earlier work

Which “pH range (acid range)” value does the source give for `Cc1cc(C2(c3ccc(O)c(C)c3)OS(=O)(=O)c3ccccc32)ccc1O` [Cresol red] here?
Its value is 0.2-1.8 pH.

With `Cc1cc(O)c(C(C)C)cc1C1(c2cc(C(C)C)c(O)cc2C)OS(=O)(=O)c2ccccc21` [Thymol blue] as the molecule, how does the “pH range (acid range)” value read?
Its value is 1.2-2.8 pH.

With `Cc1cc(O)ccc1C1(c2ccc(O)cc2C)OS(=O)(=O)c2ccccc21` [m-Cresol purple] as the molecule, how does the “pH range (acid range)” value read?
The value was 1.0-2.6 pH.

same assay, conditions: acid-base indicator, Table 2; cited from earlier work

With `Cc1c(C2(c3cc(Br)c(O)c(Br)c3C)OS(=O)(=O)c3ccccc32)cc(Br)c(O)c1Br` [Bromocresol green (blue), Bromocresol green] as the molecule, how does the pH range read?
The pH range was 3.6-5.2 pH.

For `Cc1cc(C2(c3cc(C)c(O)c(Br)c3)OS(=O)(=O)c3ccccc32)cc(Br)c1O` [Bromocresol purple], which pH range is on record?
Its pH range is 5.2-6.8 pH.

Which pH range does the source give for `O=S1(=O)OC(c2cc(Br)c(O)c(Br)c2)(c2cc(Br)c(O)c(Br)c2)c2ccccc21` [Bromophenol blue] here?
Its pH range is 3.0-4.6 pH.

Which pH range does the source give for `Cc1c(C2(c3cc(C(C)C)c(O)c(Br)c3C)OS(=O)(=O)c3ccccc32)cc(C(C)C)c(O)c1Br` [Bromothymol blue] here?
The pH range was 6.0-7.6 pH.

For `O=S1(=O)OC(c2ccc(O)c(Cl)c2)(c2ccc(O)c(Cl)c2)c2ccccc21` [Chlorophenol red], which pH range is on record?
The pH range was 4.8-6.4 pH.

Which pH range does the source give for `Nc1c(/N=N/c2ccc(-c3ccc(/N=N/c4cc(S(=O)(=O)O)c5ccccc5c4N)cc3)cc2)cc(S(=O)(=O)O)c2ccccc12` [Congo red] here?
Its pH range is 3.0-5.0 pH.

With `CN(C)c1ccc(N=Nc2ccccc2)cc1` [Methyl Yellow] as the molecule, how does the pH range read?
The pH range was 2.9-4.0 pH.

For `CN(C)c1ccc(N=Nc2ccc(S(=O)(=O)O)cc2)cc1` [Methyl orange], which pH range is on record?
Its pH range is 3.1-4.4 pH.

With `CN(C)c1ccc(/N=N/c2ccccc2C(=O)O)cc1` [Methyl red] as the molecule, how does the pH range read?
The pH range was 4.2-6.3 pH.

With `Cc1cc2nc3ccc(N(C)C)cc3nc2cc1N` [Neutral red] as the molecule, how does the pH range read?
Its pH range is 6.8-8.0 pH.

Which pH range does the source give for `O=S1(=O)OC(c2ccc(O)cc2)(c2ccc(O)cc2)c2ccccc21` [Phenol red] here?
The pH range was 6.8-8.4 pH.

With `O=C1OC(c2ccc(O)cc2)(c2ccc(O)cc2)c2ccccc21` [Phenolphthalein] as the molecule, how does the pH range read?
The pH range was 8.3-10.0 pH.

Which pH range does the source give for `O=S1(=O)OC(c2cc(Br)c(O)c(Br)c2)(c2cc(Br)c(O)c(Br)c2)c2c(Br)c(Br)c(Br)c(Br)c21` [Tetrabromophenol blue] here?
The pH range was 3.0-4.6 pH.

With `Cc1cc(O)c(C(C)C)cc1C1(c2cc(C(C)C)c(O)cc2C)OC(=O)c2ccccc21` [Thymolphthalein] as the molecule, how does the pH range read?
Its pH range is 9.3-10.5 pH.

For `O=S(=O)(O)c1ccc(N=Nc2ccc(Nc3ccccc3)cc2)cc1` [Tropaeolin OO], which pH range is on record?
Its pH range is 1.3-3.0 pH.

With `O=S(=O)(O)c1ccc(N=Nc2ccc(O)cc2O)cc1` [Tropaeolin O] as the molecule, how does the pH range read?
The pH range was 11.1-12.7 pH.

Which pH range does the source give for Alizarin yellow here?
The pH range was 10.1-12.0 pH.

With Azolitmin [Azolitmin (litmus)] as the molecule, how does the pH range read?
Its pH range is 5.0-8.0 pH.

same assay, conditions: basic range, Table 2; cited from earlier work

For `Cc1cc(C2(c3ccc(O)c(C)c3)OS(=O)(=O)c3ccccc32)ccc1O` [Cresol red], which “pH range (basic range)” value is on record?
Its value is 7.2-8.8 pH.

With `Cc1cc(O)c(C(C)C)cc1C1(c2cc(C(C)C)c(O)cc2C)OS(=O)(=O)c2ccccc21` [Thymol blue] as the molecule, how does the “pH range (basic range)” value read?
Its value is 8.0-9.6 pH.

For `Cc1cc(O)ccc1C1(c2ccc(O)cc2C)OS(=O)(=O)c2ccccc21` [m-Cresol purple], which “pH range (basic range)” value is on record?
Its value is 7.6-9.2 pH.
